# Assay results as given in article PMC4993737, “Antibacterial activity identification of pCM19 and pCM12 derived from hGlyrichin” (SpringerPlus, 2016).
# Tests used:
# [1] = system: S. Typhi (ATCC 19430); test: Bacteria colony counting method; format: cell-based, Salmonella Typhi; settings: 100 µg peptide, 37 °C 2 h, plated, colonies counted after 12–18 h, n = 5, numbers only in Fig. 1e
# Description: (§1) The antimicrobial activity assays were completed in a specialized laboratory. Red blood cells were collected from healthy adults at the 307 hospital laboratory. All participants gave informed consent to participate in the study.
# (§2) Twenty microliters of the culture was diluted in LB (final volume 1 ml) and was evenly coated on an LB plate, inverted and incubated at 37 °C for 12–18 h and then the bacterial colonies were counted.
# [2] = system: E. coli BL21; test: Bacteria colony counting method; format: cell-based, Escherichia coli; settings: 100 µg peptide, 37 °C 2 h, plated, colonies counted after 12–18 h, n = 5, numbers only in Fig. 1a
# Description: as §1, §2
# [3] = system: E. coli BL21 Amp^R; test: Bacteria colony counting method; format: cell-based, Escherichia coli; settings: 100 µg peptide, 37 °C 2 h, plated, colonies counted after 12–18 h, n = 5, numbers only in Fig. 1b
# Description: as §1, §2
# [4] = system: S. aureus (ATCC 25923); test: Bacteria colony counting method; format: cell-based, Staphylococcus aureus; settings: 100 µg peptide, 37 °C 2 h, plated, colonies counted after 12–18 h, n = 5, numbers only in Fig. 1c
# Description: as §1, §2
# [5] = system: S. aureus Amp^R (ATCC BAA-44); test: Bacteria colony counting method; format: cell-based, Staphylococcus aureus; settings: 100 µg peptide, 37 °C 2 h, plated, colonies counted after 12–18 h, n = 5, numbers only in Fig. 1d
# Description: as §1, §2
# [6] = system: human red blood cells; test: In vitro hemolysis assay; format: cell-based; settings: 1 h 37 °C, even at a much higher concentration than the effective antibacterial dose (up to 3000 µg/ml)
# Description: as §1
# Blood samples from healthy donors were treated with heparin to minimize clotting. The blood cell was washed three times with normal saline, and 8 µl samples were diluted to 100 µl in normal saline. The diluted blood cell (100 µl) was incubated with 100 µl of pCM19 (3000 µg/ml) for 1 h at 37 °C; then the same volume diluted blood cell was incubated with 100 µl of pCM12 (100, 200, 500, 1000, 2000, 3000 µg/ml) for 1 h at 37 °C. Centrifugation was carried out at 1000 rpm for 5 min at 4 °C. Each treatment was performed in triplicate. The absorbance of each sample was measured at 570 nm using a microplate reader.
Substance,antibacterial activity by colony counting [1],antibacterial activity by colony counting [2],antibacterial activity by colony counting [3],antibacterial activity by colony counting [4],antibacterial activity by colony counting [5],"damage to red cell membranes (hemolysis), in words [6]"
"CLRIGMRGREL [pCM11, pCM12 with the last amino acid residue removed]",lost its antibacterial activity,lost its antibacterial activity,lost its antibacterial activity,lost its antibacterial activity,lost its antibacterial activity,–
"CLRIGMRGRELMGGIGKTM [pCM19, 19 amino acids from positions 42 to 60 of hGlyrichin]",effectively inhibited the growth,effectively inhibited the growth,good inhibition and killing,effectively inhibited the growth,good inhibition and killing,caused no damage to the red cell membranes
"GGIGKTM [flexible peptide, a GIG array, the portion that is different between pCM19 and pCM12]",almost completely lost the antibacterial activity,almost completely lost the antibacterial activity,almost completely lost the antibacterial activity,almost completely lost the antibacterial activity,almost completely lost the antibacterial activity,–
"GICRLMMRRGLE [RC, a random array of pCM12]",almost completely lost its bactericidal activity,almost completely lost its bactericidal activity,almost completely lost its bactericidal activity,almost completely lost its bactericidal activity,almost completely lost its bactericidal activity,–
"CLRIGMRGRELM [pCM12, 12 amino acids of pCM19 from which 7 amino acids at the carboxyl terminal were removed]",effectively inhibited the growth,effectively inhibited the growth,good inhibition and killing,effectively inhibited the growth,good inhibition and killing,caused no damage to the red cell membranes
